Test system: 317291-083-R-J1-PDC complex spheroids, viability
Experiment: Anticancer human tumor 317291-083-R-J1-PDC patient-derived soft tissue sarcoma cell line growth inhibition [GQUAD]
Conditions: for IC50: curve of first compound; for viability, T/C: stronger effect = lower value
Procedure, shortened: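 Tumor cells were grown as complex spheroids with HUVEC endothelial cells and mesenchymal stem cells as stroma. G-quadruplex stabilizers were combined with targeted agents over half-log dilutions from near the clinical Cmax, or from 10 microM.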
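Also: spheroids exposed to compounds for one week before readout.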
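For viability, T/C in this document: percent viability relative to DMSO vehicle wells taken as 100%.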

## COc1ncnc(C2CC2)c1-c1ncc2cnn(Cc3ccc(-c4nc(C(F)(F)F)cn4C(C)C)cc3)c2n1 + Cc1cnc(CNC(=O)c2c(=O)c3ccc(N4CCCN(C)CC4)nc3n3c2sc2ccccc23)cn1
Second compound 0.0316 µM
  IC50: > 10000 nM
Second compound 0.1 µM
  IC50: 138 nM
Second compound 0.316 µM
  IC50: 373 nM
Second compound 1 µM
  IC50: < 31.6 nM
Second compound 3.16 µM
  IC50: < 31.6 nM
Second compound 10 µM
  IC50: < 31.6 nM
Second compound 0.0316 µM, first compound 0.0316 µM
  viability, T/C: 78.3%
Second compound 0.0316 µM, first compound 0.1 µM
  viability, T/C: 76.8%
Second compound 0.0316 µM, first compound 0.316 µM
  viability, T/C: 71.6%
Second compound 0.0316 µM, first compound 1 µM
  viability, T/C: 72.2%
Second compound 0.0316 µM, first compound 3.16 µM
  viability, T/C: 67%
Second compound 0.0316 µM, first compound 10 µM
  viability, T/C: 54.1%
Second compound 0.1 µM, first compound 0.0316 µM
  viability, T/C: 59.5%
Second compound 0.1 µM, first compound 0.1 µM
  viability, T/C: 51.1%
Second compound 0.1 µM, first compound 0.316 µM
  viability, T/C: 47.3%
Second compound 0.1 µM, first compound 1 µM
  viability, T/C: 39.3%
Second compound 0.1 µM, first compound 3.16 µM
  viability, T/C: 56.1%
Second compound 0.1 µM, first compound 10 µM
  viability, T/C: 53%
Second compound 0.316 µM, first compound 0.0316 µM
  viability, T/C: 46.6%
Second compound 0.316 µM, first compound 0.1 µM
  viability, T/C: 48.1%
Second compound 0.316 µM, first compound 0.316 µM
  viability, T/C: 63.6%
Second compound 0.316 µM, first compound 1 µM
  viability, T/C: 31.2%
Second compound 0.316 µM, first compound 3.16 µM
  viability, T/C: 37.4%
Second compound 0.316 µM, first compound 10 µM
  viability, T/C: 32%
Second compound 1 µM, first compound 0.0316 µM
  viability, T/C: 31.3%
Second compound 1 µM, first compound 0.1 µM
  viability, T/C: 36.8%
Second compound 1 µM, first compound 0.316 µM
  viability, T/C: 44.1%
Second compound 1 µM, first compound 1 µM
  viability, T/C: 30.5%
Second compound 1 µM, first compound 3.16 µM
  viability, T/C: 32.3%
Second compound 1 µM, first compound 10 µM
  viability, T/C: 25.8%
Second compound 3.16 µM, first compound 0.0316 µM
  viability, T/C: 20.5%
Second compound 3.16 µM, first compound 0.1 µM
  viability, T/C: 13.6%
Second compound 3.16 µM, first compound 0.316 µM
  viability, T/C: 30%
Second compound 3.16 µM, first compound 1 µM
  viability, T/C: 15.5%
Second compound 3.16 µM, first compound 3.16 µM
  viability, T/C: 16.2%
Second compound 3.16 µM, first compound 10 µM
  viability, T/C: 21.2%
Second compound 10 µM, first compound 0.0316 µM
  viability, T/C: 0.63%
Second compound 10 µM, first compound 0.1 µM
  viability, T/C: 0.19%
Second compound 10 µM, first compound 0.316 µM
  viability, T/C: 0.22%
Second compound 10 µM, first compound 1 µM
  viability, T/C: 0.19%
Second compound 10 µM, first compound 3.16 µM
  viability, T/C: 0.26%
Second compound 10 µM, first compound 10 µM
  viability, T/C: 0.24%
